Common to all, as to assay type: in vivo
Data set [1] concerns main crop (wheat, corn, rice, soybean, cotton, oilseed, millet and sorghum). Put plainly: Post-emergence test experiment, main crops (Table 2). The arrangement: key: Level 10: completely dead; Level 9: above 90% growth inhibition rate; Level 8: above 80% growth inhibition rate; Level 7: above 70% growth inhibition rate; Level 6: above 60% growth inhibition rate; Level 5: above 50% growth inhibition rate; Level 4: above 30% growth inhibition rate; Level 3: above 20% growth inhibition rate; Level 2: above 10% growth inhibition rate; Level 1: above 1-10% growth inhibition rate; Level 0: no effect. The note with it: 30 g/ha, 3 weeks after spraying, greenhouse. The procedure, abridged: (§1)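 Compounds, dissolved in acetone, mixed with Tween 80 and diluted in water, were sprayed post-emergence onto greenhouse-grown weeds and crops at the 2-3 leaf stage (2-3 weeks post-sowing). Plants then grown 3 more weeks in the greenhouse before evaluation.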

In another data set the test system is Echinochloa crus-galli. Put plainly: Weed control effect evaluation in transplanted rice field. Also on record: key: Level 10: completely dead; Level 9: above 90% growth inhibition rate; Level 8: above 80% growth inhibition rate; Level 7: above 70% growth inhibition rate; Level 6: above 60% growth inhibition rate; Level 5: above 50% growth inhibition rate; Level 4: above 30% growth inhibition rate; Level 3: above 20% growth inhibition rate; Level 2: above 10% growth inhibition rate; Level 1: above 1-10% growth inhibition rate; Level 0: no effect. The note with it: transplanted rice field pot test, application rate 60 g/ha, 14 days after treatment. As for the experimental part:
(§2) Rice field soil was loaded into a 1/1,000,000 ha pot. The seeds of Echinochloa, Scirpus juncoides, Bidens tripartite and Sagittaria trifolia were sowed and gently covered with soil, then left to stand still in greenhouse in the state of 0.5-1 cm of water storage. The tuber of Sagittaria trifolia was planted in the next day or 2 days later. It was kept at 3-4 cm of water storage thereafter. The weeds were treated by dripping the WP or SC water diluents prepared according to the common preparation method of the compounds of the present invention with pipette homogeneously to achieve specified effective amount when Echinochloa, Scirpus juncoides and Bidens tripartite reached 0.5 leaf stage and Sagittaria trifolia reached the time point of primary leaf stage.
(§3) The fertility condition of Echinochloa, Scirpus juncoides, Bidens tripartite and Sagittaria trifolia 14 days after the treatment of the compound of the invention and the fertility condition of rice 21 days after the treatment of the compound of the invention respectively with the naked eye.
(§4) The seeds of Echinochloa crus-galli, Scirpus juncoides and Monochoria vaginalis were collected from Heilongjing and Jiangsu Province of China.

A further data set deals with Monochoria vaginalis. The data set is described as above. Also on record: key: Level 10: completely dead; Level 9: above 90% growth inhibition rate; Level 8: above 80% growth inhibition rate; Level 7: above 70% growth inhibition rate; Level 6: above 60% growth inhibition rate; Level 5: above 50% growth inhibition rate; Level 4: above 30% growth inhibition rate; Level 3: above 20% growth inhibition rate; Level 2: above 10% growth inhibition rate; Level 1: above 1-10% growth inhibition rate; Level 0: no effect. The note with it: transplanted rice field pot test, application rate 60 g/ha, 14 days after treatment. As for the experimental part:
as §2, §3, §4

For another data set, the system named is Scirpus juncoides. Described as above. Also on record: key: Level 10: completely dead; Level 9: above 90% growth inhibition rate; Level 8: above 80% growth inhibition rate; Level 7: above 70% growth inhibition rate; Level 6: above 60% growth inhibition rate; Level 5: above 50% growth inhibition rate; Level 4: above 30% growth inhibition rate; Level 3: above 20% growth inhibition rate; Level 2: above 10% growth inhibition rate; Level 1: above 1-10% growth inhibition rate; Level 0: no effect. The following applies: transplanted rice field pot test, application rate 60 g/ha, 14 days after treatment. As for the experimental part: as §2, §3, §4

The test system of the next data set is Rice. Briefly: Transplanted rice safety evaluation. The note with it: transplanted 3 leaf stage japonica rice, application rate 60 g/ha, 21 days after treatment. The arrangement: key: Level 10: completely dead; Level 9: above 90% growth inhibition rate; Level 8: above 80% growth inhibition rate; Level 7: above 70% growth inhibition rate; Level 6: above 60% growth inhibition rate; Level 5: above 50% growth inhibition rate; Level 4: above 30% growth inhibition rate; Level 3: above 20% growth inhibition rate; Level 2: above 10% growth inhibition rate; Level 1: above 1-10% growth inhibition rate; Level 0: no effect. How it is done:
In addition, the rice field soil that loaded into the 1/1,000,000 ha pot was leveled to keep water storage at 3-4 cm depth. The 3 leaf stage rice (japonica rice) was transplanted at 3 cm of transplanting depth the next day. The compound of the present invention was treated by the same way after 5 days of transplantation. The fertility condition of Echinochloa, Scirpus juncoides, Bidens tripartite and Sagittaria trifolia 14 days after the treatment of the compound of the invention and the fertility condition of rice 21 days after the treatment of the compound of the invention respectively with the naked eye.

In data set [2] the test system is Monocotyledonous and dicotyledonous weed. Briefly: Post-emergence test experiment, weed control effect (Table 2). The arrangement: key to weed control effect, Setaria viridis (level) / weed control effect, Rorippa indica (level) / weed control effect, Abutilon theophrasti (level) / weed control effect, Echinochloa crus-galli (level) / weed control effect, Digitaria sanguinalis (level): Level 10: completely dead; Level 9: above 90% growth inhibition rate; Level 8: above 80% growth inhibition rate; Level 7: above 70% growth inhibition rate; Level 6: above 60% growth inhibition rate; Level 5: above 50% growth inhibition rate; Level 4: above 30% growth inhibition rate; Level 3: above 20% growth inhibition rate; Level 2: above 10% growth inhibition rate; Level 1: above 1-10% growth inhibition rate; Level 0: no effect. The note with it: 30 g/ha, 3 weeks after spraying, greenhouse. Put shortly:
as §1

Take `Cc1nn(C)cc1C(=O)Oc1c(C(=O)c2ccc(S(C)(=O)=O)c(COCC(F)F)c2Cl)cnn1C` [Compound 40]: in data set [1], the “effect on crop, corn (level)” value is 0; the “effect on crop, rice (level)” value is recorded as 5 (Level 5: above 50% growth inhibition rate); the “effect on crop, wheat (level)” value was 0. Moreover, the “Weed control effect, Echinochloa crus-galli (activity level)” value in the data set on Echinochloa crus-galli was found to be 10. Moreover, the “Weed control effect, Monochoria vaginalis (activity level)” value in the data set with Monochoria vaginalis is 9 (Level 9: above 90% growth inhibition rate). Moreover, the “Weed control effect, Scirpus juncoides (activity level)” value (“Weed control effect, Scirpus juncoides” below) with Scirpus juncoides is on record as 9 (Level 9: above 90% growth inhibition rate). In addition, in the data set on Rice, the “Rice (safety, activity level)” value stood at 0. In data set [2], the “weed control effect, Abutilon theophrasti (level)” value is reported as 7 (Level 7: above 70% growth inhibition rate); the “weed control effect, Bidens pilosa (level)” value is on record as 7 (Level 7: above 70% growth inhibition rate); the “weed control effect, Digitaria sanguinalis (level)” value is 10; the “weed control effect, Echinochloa crus-galli (level)” value came out at 10. For the same molecule, in data set [2], the “weed control effect, Rorippa indica (level)” value is reported as 10 and the “weed control effect, Setaria viridis (level)” value is 9 (Level 9: above 90% growth inhibition rate).

On to `CCOCc1c(S(C)(=O)=O)ccc(C(=O)c2c(C3CC3)nn(C)c2OC(=O)c2cn(C)nc2C)c1Cl` [Compound 46], for which, in data set [1], the “effect on crop, corn (level)” value is 1 (Level 1: above 1-10% growth inhibition rate); the “effect on crop, rice (level)” value is 3 (Level 3: above 20% growth inhibition rate); the “effect on crop, wheat (level)” value is recorded as 0. In addition, the “Weed control effect, Echinochloa crus-galli (activity level)” value in the data set on Echinochloa crus-galli is given as 8 (Level 8: above 80% growth inhibition rate). Also, the “Weed control effect, Monochoria vaginalis (activity level)” value in the data set on Monochoria vaginalis was 9 (Level 9: above 90% growth inhibition rate). The “Weed control effect, Scirpus juncoides” value in the data set on Scirpus juncoides is listed as 9 (Level 9: above 90% growth inhibition rate). In the data set with Rice, the “Rice (safety, activity level)” value was 0. In data set [2], the “weed control effect, Abutilon theophrasti (level)” value is 7 (Level 7: above 70% growth inhibition rate); the “weed control effect, Bidens pilosa (level)” value is on record as 7 (Level 7: above 70% growth inhibition rate); the “weed control effect, Digitaria sanguinalis (level)” value came to 10; the “weed control effect, Echinochloa crus-galli (level)” value came out at 10. Also, in data set [2], the “weed control effect, Rorippa indica (level)” value is on record as 10 and the “weed control effect, Setaria viridis (level)” value turned out to be 10.

Regarding `COCc1c(S(C)(=O)=O)ccc(C(=O)c2c(C3CC3)nn(C)c2OC(=O)c2cn(C)nc2C)c1Cl` [Compound 51], in data set [1], the “effect on crop, corn (level)” value was 4 (Level 4: above 30% growth inhibition rate); the “effect on crop, rice (level)” value was 3 (Level 3: above 20% growth inhibition rate); the “effect on crop, wheat (level)” value was 0. For the same molecule, in the data set with Echinochloa crus-galli, the “Weed control effect, Echinochloa crus-galli (activity level)” value is 10. Further, the “Weed control effect, Monochoria vaginalis (activity level)” value in the data set with Monochoria vaginalis is on record as 10. In addition, the “Weed control effect, Scirpus juncoides” value with Scirpus juncoides is reported as 9 (Level 9: above 90% growth inhibition rate). Besides, the “Rice (safety, activity level)” value with Rice was found to be 0. In data set [2], the “weed control effect, Abutilon theophrasti (level)” value is 7 (Level 7: above 70% growth inhibition rate); the “weed control effect, Bidens pilosa (level)” value is recorded as 7 (Level 7: above 70% growth inhibition rate); the “weed control effect, Digitaria sanguinalis (level)” value was 10; the “weed control effect, Echinochloa crus-galli (level)” value is on record as 10. Besides, in data set [2], the “weed control effect, Rorippa indica (level)” value is listed as 10 and the “weed control effect, Setaria viridis (level)” value was 10.

For the molecule `C#CCOCc1c(S(C)(=O)=O)ccc(C(=O)c2c(C3CC3)nn(C)c2OC(=O)c2cnn(C)c2)c1Cl` [Compound 60], in data set [1], the “effect on crop, corn (level)” value came to 0; the “effect on crop, rice (level)” value was 5 (Level 5: above 50% growth inhibition rate); the “effect on crop, wheat (level)” value came out at 0. Further, the “Weed control effect, Echinochloa crus-galli (activity level)” value with Echinochloa crus-galli was 10. Also, the “Weed control effect, Monochoria vaginalis (activity level)” value with Monochoria vaginalis amounted to 10. For the same molecule, in the data set on Scirpus juncoides, the “Weed control effect, Scirpus juncoides” value amounted to 10. Further, the “Rice (safety, activity level)” value in the data set on Rice is reported as 2 (Level 2: above 10% growth inhibition rate). Besides, in data set [2], the “weed control effect, Abutilon theophrasti (level)” value is 6 (Level 6: above 60% growth inhibition rate); the “weed control effect, Bidens pilosa (level)” value is 4 (Level 4: above 30% growth inhibition rate); the “weed control effect, Digitaria sanguinalis (level)” value is 7 (Level 7: above 70% growth inhibition rate); the “weed control effect, Echinochloa crus-galli (level)” value is 10. Moreover, in data set [2], the “weed control effect, Rorippa indica (level)” value is 7 (Level 7: above 70% growth inhibition rate) and the “weed control effect, Setaria viridis (level)” value is 7 (Level 7: above 70% growth inhibition rate).

As to `CCOCCOCc1c(S(C)(=O)=O)ccc(C(=O)c2cnn(C)c2OC(=O)c2cnn(C)c2)c1Cl` [Compound 68], in data set [1], the “effect on crop, corn (level)” value is 0; the “effect on crop, rice (level)” value was 3 (Level 3: above 20% growth inhibition rate); the “effect on crop, wheat (level)” value was found to be 0. For the same molecule, the “Weed control effect, Echinochloa crus-galli (activity level)” value with Echinochloa crus-galli is on record as 7 (Level 7: above 70% growth inhibition rate). Moreover, in the data set on Monochoria vaginalis, the “Weed control effect, Monochoria vaginalis (activity level)” value turned out to be 10. Also, in the data set on Scirpus juncoides, the “Weed control effect, Scirpus juncoides” value is listed as 10. In the data set on Rice, the “Rice (safety, activity level)” value is reported as 1 (Level 1: above 1-10% growth inhibition rate). Moreover, in data set [2], the “weed control effect, Abutilon theophrasti (level)” value was 7 (Level 7: above 70% growth inhibition rate); the “weed control effect, Bidens pilosa (level)” value was 7 (Level 7: above 70% growth inhibition rate); the “weed control effect, Digitaria sanguinalis (level)” value is 7 (Level 7: above 70% growth inhibition rate); the “weed control effect, Echinochloa crus-galli (level)” value is 10. Moreover, in data set [2], the “weed control effect, Rorippa indica (level)” value worked out at 10 and the “weed control effect, Setaria viridis (level)” value is recorded as 9 (Level 9: above 90% growth inhibition rate).

For `C#CCOCc1c(S(C)(=O)=O)ccc(C(=O)c2c(C)nn(C)c2OC(=O)c2cn(C)nc2C)c1C` [Compound 76], in data set [1], the “effect on crop, corn (level)” value is given as 1 (Level 1: above 1-10% growth inhibition rate); the “effect on crop, rice (level)” value is given as 3 (Level 3: above 20% growth inhibition rate); the “effect on crop, wheat (level)” value is 0. Also, the “Weed control effect, Echinochloa crus-galli (activity level)” value in the data set with Echinochloa crus-galli worked out at 10. Besides, the “Weed control effect, Monochoria vaginalis (activity level)” value in the data set on Monochoria vaginalis is recorded as 10. For the same molecule, the “Weed control effect, Scirpus juncoides” value with Scirpus juncoides stood at 10. The “Rice (safety, activity level)” value in the data set with Rice was determined as 0. In data set [2], the “weed control effect, Abutilon theophrasti (level)” value is recorded as 7 (Level 7: above 70% growth inhibition rate); the “weed control effect, Bidens pilosa (level)” value was 7 (Level 7: above 70% growth inhibition rate); the “weed control effect, Digitaria sanguinalis (level)” value is recorded as 7 (Level 7: above 70% growth inhibition rate); the “weed control effect, Echinochloa crus-galli (level)” value was 10. In data set [2], the “weed control effect, Rorippa indica (level)” value is 10 and the “weed control effect, Setaria viridis (level)” value stood at 10.

These data come from patent US10556888B2, “Pyrazole compounds or salts thereof, preparation methods therefor, herbicidal compositions and use thereof” (QINGDAO KINGAGROOT CHEMICAL COMPOUNDS CO., LTD, priority 2015, dated 2020).
